Data: patent US20240293430A1, “WITHAFERIN A AND IMMUNE CHECKPOINT BLOCKER COMBINATION THERAPIES” (University of South Florida, priority 2023, published 2024)

Key:
[1] = system: WI-38 lung fibroblasts and PBMCs; conditions: at WFA concentrations toxic to A549 NSCLC cells; cited from earlier work
[2] = system: ROS levels in NSCLC cell lines; test: ROS levels with ROS indicator CM-H2DCFDA; type: cell-based, mouse (LLC), human (H1650; conditions: 24 h; WFA 0.6 μM (LLC, H1650), 4 μM (A549); NAC 5 mM
[3] = system: PARP, BCL-XL, CHOP, p-eIF-2 in NSCLC cell lines; test: Western blot of apoptosis and ER stress markers; type: cell-based, mouse (LLC), human (H1650)
Experimental: FIGS. 1A-lE depict that WFA induces ER stress-mediated apoptosis in NSCLC cell lines. (FIG. 1A) NSCLC cells were plated on 96-well plates and treated with different concentrations of WFA ([…]) in triplicates. Forty-eight hours post-treatment, cell viability was determined using Cell Titer-Glo assay. Luminescence values were normalized to control untreated cells and IC50 values are represented as the mean of two independent experiments ±SEM. (FIG. 1B) NSCLC cells were treated WFA for forty-eight hours, then collected to measure apoptotic cell death using Annexin V assay in LLC cells, H1650 cells, and A549 cells. Percentages of early (annexin*DAPI-) and late (annexin*DAPI+) apoptotic cells are represented as means of two separate experiments ±SEM and statistical significance was calculated using one-way ANOVA and a Fisher LSD post hoc test was used to compare the mean of each group to that of the control group. (FIGS. 1C-1D) WFA treated cells were collected in Trizol and total RNA was isolated to measure the levels of Bax (FIG. 1C) and Bcl2 (FIG. 1D) mRNA using qRT-PCR. PCR experiments were repeated at least twice, and one representative experiment is shown as mean±SEM of the technical replicates. (FIG. 1E) Western blot of ER stress markers p-eIF-2 and CHOP was performed using total lysates of WFA-treated LLC cells. The quantification of western blot band density was performed using Image J software v.1.54d and normalized to housekeeping control protein in LLC cells (0-actin). […] Data were obtained from two independent experiments.
FIGS. 7A-7I depict qRT-PCR analysis of the change in expression of pro-apoptotic and anti-apoptotic induced by WFA treatment. WFA increased the mRNA levels of proapoptotic protein Bak-1 in (FIG. 7A) LLC cells and BAD in (FIG. 7C) H1650 cells. […]
Total protein was isolated using Radioimmunoprecipitation Assay (RIPA) buffer (Thermo Fisher Scientific, Waltham, MA, USA) and sonication of cell pellets using Branson digital sonifier 450. […] Then, protein levels were quantified using a Pierce Coomassie Protein assay kit (Thermo Fisher Scientific, Waltham, MA, USA) according to the manufacturer's instruction and the absorbance values at 595 nm were measured using a plate reader (Bio Tek, Winooski, VT, USA) and used to calculate protein concentrations. […] Protein bands were detected using SuperSignal West Pico PLUS Chemiluminescent Substrate or West Femto Maximum Sensitivity Substrate (Thermo Fisher Scientific, Waltham, MA, USA) and imaged using the ChemiDoc XRS imaging system (Bio-Rad, Hercules, CA, USA) according to the manufacturer's instructions. Band density was measured using Image J software version 1.54d and was normalized to housekeeping proteins (0-actin or Vinculin). […]

In the case of `CC1=C(CO)C(=O)O[C@@H]([C@@H](C)[C@H]2CC[C@H]3[C@@H]4C[C@H]5O[C@]56[C@@H](O)C=CC(=O)[C@]6(C)[C@H]4CC[C@]23C)C1` [WFA, Withaferin A], the “viability of normal cells” value [1] is listed as “remain viable”, the ROS levels [2] is listed as “increased” and the “levels of BCL-XL” value ([3]; H1650 cells) is listed as “reduced”. The PARP cleavage ([3]; LLC and H1650 cells) was “increased”, the “levels of C/EBP homologous protein (CHOP)” value ([3]; LLC cells) was “increases” and the “phosphorylation of eIF-2” value ([3]; LLC cells) was “increases”.
